Legend:
Type in all cases: cell-based
Candida geochares [1] = assay: Growth rate in YPD shake flasks (first secondary screen)
Procedure: (§1) For the first secondary screen, growth rates were measured in YPD media containing 0 g/L malate at pH 3.0 or 200 g/L malate at pH 2.85. Shake flasks were inoculated with biomass harvested from seed flasks grown overnight to an OD600 of 6 to 10. 250 mL baffled growth rate flasks (50 mL working volume) were inoculated to an OD600 of 0.1 and grown at 250 rpm and 30° C. Samples were taken throughout the time course of the assay and analyzed for biomass growth via OD600. The resulting OD600 data was plotted and growth rates were established.
(§2) The same procedures were utilized to screen, rate, and score the original 91 wild-type yeast strains from the primary screen with media containing 0, 30, 45, and 60 g/L lactic acid at pH 3.0 (˜80% free acid). Due to difficulties in properly scoring some very weak growth that occasionally occurred at 60 g/L, 20 strains were re-tested in the primary screen. Of these 20 strains, eight were eliminated due to very slow growth relative to the rest of the test group. The remaining 12 strains were advanced into secondary screening. The secondary screen for lactic acid was the same as that described above for malate, except for changes in concentrations and pH values. Growth rates were measured at 0 g/L lactic acid, pH 3.0 and 50 g/L lactic acid, pH 2.85, and glucose consumption rates were measured in the presence of 50 g/L lactic acid, pH 2.85. Normalized values and weighted and summed scores were calculated for each strain as described above for malate.

[2] = test system: Candida lambica ATCC 38617; assay: as above
Procedure: as §1, §2

[3] = test system: Candida milleri ATCC 60592; assay: as above
Procedure: as §1, §2

[4] = test system: Candida sorbosivorans ATCC 38619; assay: as above; conditions: Candida sorosivorans, scale 0 to 1
Procedure: as §1, §2

[5] = test system: Candida zemplinina PYCC 04-501; assay: as above
Procedure: as §1, §2

[6] = test system: Issatchenkia orientalis ATCC 24210; assay: as above
Procedure: as §1, §2

[7] = test system: Issatchenkia orientalis ATCC PTA-6658; assay: as above
Procedure: as §1, §2

[8] = test system: Issatchenkia orientalis CD1822; assay: as above
Procedure: as §1, §2

[9] = test system: Kodamaea ohmeri ATCC 20282; assay: as above
Procedure: as §1, §2

[10] = test system: Saccharomyces bayanus ATCC 90739; assay: as above
Procedure: as §1, §2

[11] = test system: Saccharomyces bulderi ATCC MYA-402; assay: as above
Procedure: as §1, §2

[12] = test system: Saccharomyces bulderi ATCC MYA-404; assay: as above
Procedure: as §1, §2

Saccharomyces javensis [13] = assay: as above
Procedure: as §1, §2

Candida geochares [14] = assay: Glucose consumption rate in YPD shake flasks (second secondary screen); conditions: 50 g/L lactic acid, pH 2.85, scale 0 to 1
Procedure: (§3) For the second secondary screen, glucose consumption was measured in YPD media containing 0 g/L malate at pH 3.0 or 200 g/L malate at pH 2.85. Shake flasks were inoculated with biomass harvested from seed flasks grown overnight to an OD600 of 6 to 10. 250 mL baffled glycolytic assay flasks (50 mL working volume) were inoculated to an OD600 of 0.1 and grown at 250 RPM and 30° C. Samples were taken throughout the time course of the assay and analyzed for glucose consumption using a 2700 Biochemistry Analyzer (Yellow Springs Instruments, YSI). The resulting data was plotted and glucose consumption rates were established.
as §2

[15] = test system: Candida lambica ATCC 38617; assay: as above; conditions: 50 g/L lactic acid, pH 2.85, scale 0 to 1
Procedure: as §3, §2

[16] = test system: Candida milleri ATCC 60592; assay: as above; conditions: 50 g/L lactic acid, pH 2.85, scale 0 to 1
Procedure: as §3, §2

[17] = test system: Candida sorbosivorans ATCC 38619; assay: as above; conditions: Candida sorosivorans; 50 g/L lactic acid, pH 2.85; scale 0 to 1
Procedure: as §3, §2

[18] = test system: Candida zemplinina PYCC 04-501; assay: as above; conditions: 50 g/L lactic acid, pH 2.85, scale 0 to 1
Procedure: as §3, §2

[19] = test system: Issatchenkia orientalis ATCC 24210; assay: as above; conditions: 50 g/L lactic acid, pH 2.85, scale 0 to 1
Procedure: as §3, §2

[20] = test system: Issatchenkia orientalis ATCC PTA-6658; assay: as above; conditions: 50 g/L lactic acid, pH 2.85, scale 0 to 1
Procedure: as §3, §2

[21] = test system: Issatchenkia orientalis CD1822; assay: as above; conditions: 50 g/L lactic acid, pH 2.85, scale 0 to 1
Procedure: as §3, §2

[22] = test system: Kodamaea ohmeri ATCC 20282; assay: as above; conditions: 50 g/L lactic acid, pH 2.85, scale 0 to 1
Procedure: as §3, §2

[23] = test system: Saccharomyces bayanus ATCC 90739; assay: as above; conditions: 50 g/L lactic acid, pH 2.85, scale 0 to 1
Procedure: as §3, §2

[24] = test system: Saccharomyces bulderi ATCC MYA-402; assay: as above; conditions: 50 g/L lactic acid, pH 2.85, scale 0 to 1
Procedure: as §3, §2

[25] = test system: Saccharomyces bulderi ATCC MYA-404; assay: as above; conditions: 50 g/L lactic acid, pH 2.85, scale 0 to 1
Procedure: as §3, §2

Saccharomyces javensis [26] = assay: as above; conditions: 50 g/L lactic acid, pH 2.85, scale 0 to 1
Procedure: as §3, §2

CC(O)C(=O)O (stereo not drawn) [lactic acid] was tested, and the “Normalized grade: Growth rate slope” value (Candida geochares [1]; lactic acid, scale 0 to 1) was 0.27, the “Normalized grade: Growth rate 50 g/L lactic acid” value (Candida geochares [1]; pH 2.85, scale 0 to 1) was 0.17 and the “Normalized grade: Growth rate slope” value ([2]; lactic acid, scale 0 to 1) was 1. The “Normalized grade: Growth rate 50 g/L lactic acid” value ([2]; pH 2.85, scale 0 to 1) was 0.92, the “Normalized grade: Growth rate slope” value ([3]; lactic acid, scale 0 to 1) was 0.64 and the “Normalized grade: Growth rate 50 g/L lactic acid” value ([3]; pH 2.85, scale 0 to 1) was 0. For the same compound, the “Normalized grade: Growth rate slope” value ([4]; lactic acid) was 0.95, the “Normalized grade: Growth rate 50 g/L lactic acid” value ([4]; pH 2.85) was 0.28 and the “Normalized grade: Growth rate slope” value ([5]; lactic acid, scale 0 to 1) was 0.95. For the same compound, the “Normalized grade: Growth rate 50 g/L lactic acid” value ([5]; pH 2.85, scale 0 to 1) was 0.22, the “Normalized grade: Growth rate slope” value ([6]; lactic acid, scale 0 to 1) was 0.73 and the “Normalized grade: Growth rate 50 g/L lactic acid” value ([6]; pH 2.85, scale 0 to 1) was 0.89. The “Normalized grade: Growth rate slope” value ([7]; lactic acid, scale 0 to 1) was 0.95, the “Normalized grade: Growth rate 50 g/L lactic acid” value ([7]; pH 2.85, scale 0 to 1) was 0.94 and the “Normalized grade: Growth rate slope” value ([8]; lactic acid, scale 0 to 1) was 0.86. For the same compound, the “Normalized grade: Growth rate 50 g/L lactic acid” value ([8]; pH 2.85, scale 0 to 1) was 1.00, the “Normalized grade: Growth rate slope” value ([9]; lactic acid, scale 0 to 1) was 0 and the “Normalized grade: Growth rate 50 g/L lactic acid” value ([9]; pH 2.85, scale 0 to 1) was 0.42. The “Normalized grade: Growth rate slope” value ([10]; lactic acid, scale 0 to 1) was 0.91, the “Normalized grade: Growth rate 50 g/L lactic acid” value ([10]; pH 2.85, scale 0 to 1) was 0.08 and the “Normalized grade: Growth rate slope” value ([11]; lactic acid, scale 0 to 1) was 0.23. For the same compound, the “Normalized grade: Growth rate 50 g/L lactic acid” value ([11]; pH 2.85, scale 0 to 1) was 0.5, the “Normalized grade: Growth rate slope” value ([12]; lactic acid, scale 0 to 1) was 0.45 and the “Normalized grade: Growth rate 50 g/L lactic acid” value ([12]; pH 2.85, scale 0 to 1) was 0.47. For the same compound, the “Normalized grade: Growth rate slope” value (Saccharomyces javensis [13]; lactic acid, scale 0 to 1) was 0.68, the “Normalized grade: Growth rate 50 g/L lactic acid” value (Saccharomyces javensis [13]; pH 2.85, scale 0 to 1) was 0.11 and the “Normalized grade: Glycolic rate” value (Candida geochares [14]) was 0.69. The “Normalized grade: Glycolic rate” value [15] was 1, the “Normalized grade: Glycolic rate” value [16] was 0.92 and the “Normalized grade: Glycolic rate” value [17] was 0.59. The “Normalized grade: Glycolic rate” value [18] was 1, the “Normalized grade: Glycolic rate” value [19] was 1 and the “Normalized grade: Glycolic rate” value [20] was 1. For the same compound, the “Normalized grade: Glycolic rate” value [21] was 1, the “Normalized grade: Glycolic rate” value [22] was 0.76 and the “Normalized grade: Glycolic rate” value [23] was 0.96. The “Normalized grade: Glycolic rate” value [24] was 1, the “Normalized grade: Glycolic rate” value [25] was 1 and the “Normalized grade: Glycolic rate” value (Saccharomyces javensis [26]) was 0.

— patent US20130309736A1, “COMPOSITIONS AND METHODS FOR MALATE AND FUMARATE PRODUCTION” (CARGILL, INCORPORATED, priority 2011, published 2013)
